Source: ChEMBL document CHEMBL5727360, “BCL-2 inhibitors” (2019)

Molecular target: Apoptosis regulator Bcl-2 (Homo sapiens, UniProt P10415)
Assay: Bcl-2 Competition Binding (Fluorescence Polarization) Assay: The fluorescence-labeled 23 amino acid peptide BH3 was purchased from CalBiochem ([…], SEQ ID NO: 1). An unbound Fluorescein labeled BH3 peptide emits random light with respect to the plane of polarization plane of excited light, resulting in a lower polarization degree (mP) value. When the peptide is bound to Bcl-2, the complex tumble slower and the emitted light can have a higher level of polarization, resulting in a higher mP value. This binding assay was performed in 96-well plate and with each assay contained 15 and 30 nM of labeled peptide and purified Bcl-2 protein (purchased from R&D Systems, Inc). The assay buffer contained 20 mM Hepes (pH 7.0), 50 mM KCl, 5 mM MgCl2, 20 mM Na2MoO4, 0.1 mg/ml Bovine Gamma Globulin and 0.01% NP40. Compounds were diluted in DMSO and added to the final assay with concentration range from 20 uM to 2 nM. The polarization degree (mP) value was determined by BioTek Synergy II with background subtraction after 3 hours of incubation at room temperature. IC50 was calculated using Prism software with sigmoidal dose-response curve fitting. ABT-737 was used as reference compound. Such assays, carried out with a range of doses of test compounds, allow the determination of an approximate IC50 value.

Chain of Apoptosis regulator Bcl-2 (P10415 whole entry): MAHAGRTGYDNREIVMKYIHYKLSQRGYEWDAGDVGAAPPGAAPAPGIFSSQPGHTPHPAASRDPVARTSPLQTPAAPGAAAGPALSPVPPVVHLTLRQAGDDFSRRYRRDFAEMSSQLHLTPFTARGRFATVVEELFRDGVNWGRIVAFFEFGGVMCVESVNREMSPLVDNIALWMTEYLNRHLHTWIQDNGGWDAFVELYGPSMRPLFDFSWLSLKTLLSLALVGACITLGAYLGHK

| IC50 [nM] | Compound |
| --- | --- |
| < 10 | CC1(C)CCC(CN2CCN(c3ccc(C(=O)NS(=O)(=O)c4ccc(NCCCN5CCOCC5)c([N+](=O)[O-])c4)c(-n4ncc5nc6[nH]ccc6cc54)c3)CC2)=C(c2ccc(Cl)cc2)C1 |
| < 10 | CC1(C)CCC(CN2CCN(c3ccc(C(=O)NS(=O)(=O)c4ccc(NC5CCN(C6CCOCC6)CC5)c([N+](=O)[O-])c4)c(-n4ncc5nc6[nH]ccc6cc54)c3)CC2)=C(c2ccc(Cl)cc2)C1 |
| < 10 | CN1CCC(F)(COc2ccc(S(=O)(=O)NC(=O)c3ccc(N4CCN(CC5=C(c6ccc(Cl)cc6)CC(C)(C)CC5)CC4)cc3-n3ncc4nc5[nH]ccc5cc43)cc2[N+](=O)[O-])CC1 |
